The results in this text go back to patent US4782074A (priority 1987, dated 1988).

Holding throughout (type): in vivo
In one assay the test system is Plasmopara viticola. In words: Grape Downy Mildew control (Example E). As to conditions: detached grape leaves, cultivar Emperor, relative to untreated check plants, read-out: % Control GDM. The procedure:
The compounds of the invention were tested for the control of the Grape Downy Mildew organism Plasmopara viticola. Detached leaves, between 70 mm and 85 mm in diameter, 7-week-old Vitis vinifera cultivar Emperor grape seedlings were used as hosts. The leaves were sprayed with a 250-ppm solution of the test compound in acetone. The sprayed leaves were dried, inoculated with a spore suspension of the organism, placed in a humid environmental chamber and incubated at 66° F. to 68° F. and about 100% relative humidity. After incubation for 2 days, the plants were then held in a greenhouse 7 to 9 days; then the amount of disease control was determined. The percent disease control provided by a given test compound was based on the percent disease reduction relative to untreated check plants.

The next assay has as its system Uromyces phaseoli tipica. Kind of assay: Leaf Rust / Bean Rust control (Example F). As to conditions: 336 h, pinto bean plants, rated after about 14 days, relative to untreated check plants, read-out: % Control BR. On the procedure:
The Leaf Rust test was made using pinto beans. The pathogen was Uromyces phaseoli tipica. The pinto bean plants were sprayed with a 250-ppm solution of the test compound in an acetone-water mixture containing a nonionic emulsifier. The treated plants were inoculated thereafter with the pathogen and then incubated in an environmental chamber for approximately 20 hours at 100% relative humidity and a temperature of 68° F. to 70° F. The plants were then removed from the chamber, allowed to dry, and then maintained in a greenhouse at a 60% to 80% relative humidity. The rate of infection on the leaves was made after about 14 days. The percent disease control provided by a given test compound was based on the percent disease reduction relative to untreated check plants.

In assay [1] the test system is Alternaria solani conidia. Kind of assay: Tomato Early Blight control (Example D). Particulars: 288 h, tomato seedlings, Bonny Best, inoculated 1 day after spray, relative to untreated check plants, read-out: % Control TEB. On the procedure: Compounds of the invention were tested for the control of the Tomato Early Blight organism Alternaria solani conidia. Tomato (variety Bonny Best) seedlings of 6- to 7-weeks old were used. The tomato plants were sprayed with a 250-ppm solution of the test compound in an acetone-and-water solution containing a small amount of a nonionic emulsifier. The sprayed plants were inoculated 1 day later with the organism, placed in the environmental chamber and incubated at 66° F. to 68° F. and 100% relative humidity for 24 hours. Following the incubation, the plants were maintained in a greenhouse for about 12 days. Percent disease control was based on the percent disease development on untreated check plants.

The subject of another assay is Phytophthora infestans. Kind of assay: whole plant or invertebrate. Particulars: in Solanum lycopersicum, 168 h, read-out: % Control TLB.
In the next assay the test system is Erysiphe polygoni. In words: Bean Powdery Mildew control (Example A). Particulars: 240 h, seedling bean plants, inoculated 1 day after spray, 10 days, relative to untreated check plants, read-out: % Control BPM. The procedure:
The compounds of the invention were tested for the control of the Bean Powdery Mildew organism Erysiphe polygoni. Seedling bean plants were sprayed with a 250-ppm solution of the test compound in acetone, water and a nonionic emusifier. The sprayed plants were then inoculated 1 day later with the organism. The plants were maintained for 10 days at temperatures of 68° F. at night with daytime temperatures of 72° F. to 80° F.; relative humidity was maintained at 40% to 60%. The percent disease control provided by a given test compound was based on the percent disease reduction relative to the untreated check plants.

The subject of another assay is Piricularia oryzae. Kind of assay: whole plant or invertebrate. As to conditions: Pyricularia oryzae, read-out: % Control RB.
A further assay deals with Septoria apii. In words: whole plant or invertebrate. As to conditions: 336 h, read-out: % Control CLB.

As for `CCCN(CCOc1c(Cl)cc(Cl)cc1Cl)C(=O)c1ccccn1` [Compound 9], the pest or weed control at 250 ppm stood at 19% with Plasmopara viticola; 50% in the assay with Uromyces phaseoli tipica; 0% in assay [1]; 0% with Phytophthora infestans; 0% with Erysiphe polygoni; 9% in the assay on Septoria apii. Also, the pest or weed control at 625 ppm in the assay on Piricularia oryzae came out at 10%.

On to `CCOCCN(CCOc1c(Cl)cc(Cl)cc1Cl)C(=O)c1cnccn1` [Compound 34], for which the pest or weed control at 250 ppm turned out to be 7% with Plasmopara viticola; 0% in the assay with Uromyces phaseoli tipica; 0% in assay [1]; 0% in the assay on Phytophthora infestans; 0% in the assay on Erysiphe polygoni; 15% in the assay on Septoria apii. For the same compound, the pest or weed control at 625 ppm in the assay with Piricularia oryzae is 38%.

In the case of `O=C(c1cnccn1)N(CCO)CCOc1c(Cl)cc(Cl)cc1Cl` [Compound 31], the pest or weed control at 250 ppm was 29% in the assay with Plasmopara viticola; 0% with Uromyces phaseoli tipica; 42% in assay [1]; 0% with Phytophthora infestans; 0% in the assay with Erysiphe polygoni; 0% in the assay on Septoria apii. The pest or weed control at 625 ppm in the assay on Piricularia oryzae worked out at 0%.

As for `CCCN(CCOc1c(C)cc(C)cc1C)C(=O)c1cnccn1` [Compound 15], the pest or weed control at 250 ppm in the assay with Plasmopara viticola worked out at 0%; in the assay on Uromyces phaseoli tipica, 0%; in assay [1], 67%; in the assay with Phytophthora infestans, 0%; with Erysiphe polygoni it was 44%; in the assay with Septoria apii it was 15%. Also, the pest or weed control at 625 ppm in the assay on Piricularia oryzae was 29%.

In the case of `CCOCCN(CCOc1c(Cl)cc(Cl)cc1Cl)C(=O)c1cccnc1` [Compound 33], the pest or weed control at 250 ppm stood at 18% with Plasmopara viticola; 0% with Uromyces phaseoli tipica; 52% in assay [1]; 0% in the assay on Phytophthora infestans; 88% with Erysiphe polygoni; 54% in the assay with Septoria apii. For the same compound, in the assay on Piricularia oryzae, the pest or weed control at 625 ppm worked out at 0%.

`CCCN(CCOc1c(Cl)cc(Cl)cc1Cl)C(=O)c1cncnc1` [Compound 2, N-(n-propyl), N-(5-pyrimidylcarbonyl)ethanolamine 2,4,6-trichlorophenylether]: the pest or weed control at 250 ppm was determined as 3% with Plasmopara viticola; 0% in the assay on Uromyces phaseoli tipica; 98% in assay [1]; 0% in the assay with Phytophthora infestans; 100% in the assay on Erysiphe polygoni; 93% with Septoria apii. Further, the pest or weed control at 625 ppm in the assay on Piricularia oryzae turned out to be 38%.

With `CCCN(CCCOc1c(Cl)cc(Cl)cc1Cl)C(=O)c1cccnc1` [Compound 19], the pest or weed control at 250 ppm in the assay on Plasmopara viticola worked out at 30%; in the assay with Uromyces phaseoli tipica, 0%; in assay [1], 0%; in the assay on Phytophthora infestans, 10%; in the assay with Erysiphe polygoni it was 70%; in the assay with Septoria apii it was 38%. In the assay on Piricularia oryzae, the pest or weed control at 625 ppm was 96%.

As to `CCCN(CCOc1c(Cl)cc(Cl)cc1Cl)C(=O)c1ccncc1` [Compound 10], the pest or weed control at 250 ppm turned out to be 9% with Plasmopara viticola; 29% with Uromyces phaseoli tipica; 32% in assay [1]; 11% with Phytophthora infestans; 0% with Erysiphe polygoni; 0% in the assay on Septoria apii. The pest or weed control at 625 ppm in the assay with Piricularia oryzae worked out at 0%.

Take `CCCN(CCCc1c(Cl)cccc1Cl)C(=O)c1cnccn1` [Compound 25]: the pest or weed control at 250 ppm is 0% in the assay with Plasmopara viticola; 0% in the assay with Uromyces phaseoli tipica; 29% in assay [1]; 0% with Phytophthora infestans; 28% in the assay with Erysiphe polygoni; 8% in the assay on Septoria apii. Also, the pest or weed control at 625 ppm in the assay with Piricularia oryzae stood at 0%.
